Experimental data from patent US4281121A, “1,3,4-Thiadiazole-2-carboxylic acid derivatives, process for making the same and fungicidal and nematocidal compositions containing same” (Schering Aktiengesellschaft, priority 1978, dated 1981).
Like-named read-outs stand apart in the source and are kept apart here.

How the values were obtained:
[1] = tested on: Fusarium avenaceum; test: Threshold concentration test in case of Fusarium avenaceum (infested soil, garden peas); format: in vivo; conditions: for number of sound peas: 20 grains per dish, 18 days at 20-24° C.; for root evaluation (1-4): 18 days
Experimental: Threshold concentration test in case of Fusarium avenaceum
A 20% pulverulent active agent of the type further identified in the table below was mixed in uniform manner with a soil which had been heavily infested with Fusarium avenaceum. The thus treated soil was then placed into clay dishes of a capacity of 0.5 l of earth. Each dish was seeded without any intervening time with 20 grains of garden peas (Pisum sativum L. convar. medullare Alef.) of the type "Wunder von Kelvedon". After a cultivation time of 18 days at 20° to 24° C. in a hot house the number of sound peas was determined and a root evaluation was carried out. The active agents employed, the amounts and results appear from the following table.
(§1) The root evaluation was carried out on a scale from 1 to 4 as follows: […]

[2] = tested on: Tilletia caries; test: Treatment of oat seeds infested with Tilletia caries (spore germination); format: in vivo
[3] = tested on: Plasmopara viticola; test: Prophylactic leaf treatment of grapevines in the hothouse against Plasmopara viticola; format: in vivo
Experimental: Effects of prophylactic leaf treatment of grapevines in the hothouse against Plasmopara viticola
Young grapevine plants having from 5 to 8 leaves were sprayed dripping wet with the concentrations of active agents stated in the table below. After drying of the spray deposit the leaves were sprayed with an aqueous suspension of sporangia of the fungus (about 20,000 per ml); the spraying was applied to the bottom side of the leaves. The plants were then immediately incubated in a hothouse at a temperature of 22° to 24° C. and at maximum water saturation in the atmosphere. Beginning with the second day the humidity of the air was reduced for 3 to 4 days to normal level (30 to 70% saturation) and was then maintained for another day on the level of full saturation. Subsequently, the percentage portion of the fungus infested surface of each leaf was noted and the average per treatment was calculated in order to determine the fungicidal activity. This was done on the basis of the following formula: [formula]
The active compounds were applied in the form of a 20% concentration spray powder.

[4] = tested on: Pythium ultimum; test: Threshold concentration test for use of the compounds against Pythium ultimum (infested soil, garden peas); format: in vivo; set-up: key to root evaluation (1-4): 4: white roots without fungous necrosis; 3: white roots, minor fungous necrosis; 2: brown roots, already more pronounced fungous necrosis; 1: heavy fungous necrosis, roots rotted; conditions: for root evaluation (1-4): 3 weeks; for number of sound peas: 20 grains per dish, 3 weeks at 20-24° C.
Experimental: Threshold concentration test for use of the compounds against Pythium ultimum
A 20% concentration of certain pulverulent active agents as listed below were mixed in uniform manner into a soil which had been heavily infested by Pythium ultimum. The thus treated soil was then placed into clay dishes of a capacity of 0.5 l earth. Without any intermediate time lapse 20 grain of garden peas (Pisum sativum L. convar. medullare Alef.) of the type "Wunder von Kelvedon" were then seeded into each of the clay dishes. After a cultivation period of three weeks at 20° to 24° C. in a hothouse the number of sound peas was determined and a root evaluation was carried out. The active agents amounts and results appear from the following table.
as §1

[5] = tested on: Helminthosporium gramineum; test: Seed treatment in open field tests for infestation by Helminthosporium gramineum (barley); format: in vivo; conditions: summer barley, about 3 months
Experimental: Seed treatment in open field tests for infestation by Helminthosporium gramineum
The active agents were used in the form of pulverulent compositions. After about 8 months in case of winter barley and after about 3 months in case of summer barley the infested plants were counted and the activity was calculated by the formula [formula]

[6] = tested on: Helminthosporium gram; conditions: about 5 weeks
Experimental: Treatment of barley seeds infested with Helminthosporium gram
After emergence, the plants were subjected to illumination for 12 hours per day. After about 5 weeks the infested plants were counted and the total number of plants for each test were also counted. The active agents tested were used as pulverulent compositions.

[7] = concentration of active agent 0.005 (unit not given)
[8] = concentration of active agent 0.025 (unit not given)
[9] = 50 g active agent/100 kg barley
[10] = concentration of active agent 0.001 (unit not given)
[11] = 25 g active agent/100 kg barley
[12] = 100 g active agent/100 kg barley

CCCCS(=O)(=O)c1nnc(C#N)s1 [5-butylsulfonyl-1,3,4-thiadiazole-2-carbonitrile]
number of sound peas ([1]; 25 mg/l soil): 18
root evaluation (1-4) ([1]; 25 mg/l soil): 4
number of sound peas ([1]; 50 mg/l soil): 20
root evaluation (1-4) ([1]; 50 mg/l soil): 4
number of sound peas ([1]; 100 mg/l soil): 20
root evaluation (1-4) ([1]; 100 mg/l soil): 4
% activity ([2]; 20 g active agent per 100 kg): 95%
% activity ([2]; 50 g active agent per 100 kg): 100%
% activity [3, 7]: 91%
% activity [3, 8]: 93%

CCCCS(=O)(=O)c1nnc(C(N)=O)s1 [5-butylsulfonyl-1,3,4-thiadiazole-2-carboxamide]
number of sound peas ([1]; 25 mg/l soil): 15
root evaluation (1-4) ([1]; 25 mg/l soil): 2
number of sound peas ([1]; 50 mg/l soil): 12
root evaluation (1-4) ([1]; 50 mg/l soil): 3
number of sound peas ([1]; 100 mg/l soil): 16
root evaluation (1-4) ([1]; 100 mg/l soil): 4
root evaluation (1-4) ([4]; 20 mg/l soil): 1
number of sound peas ([4]; 20 mg/l soil): 11
root evaluation (1-4) ([4]; 40 mg/l soil): 4
number of sound peas ([4]; 40 mg/l soil): 20
root evaluation (1-4) ([4]; 80 mg/l soil): 4
number of sound peas ([4]; 80 mg/l soil): 18
% activity [3, 7]: 73%
% activity [3, 8]: 90%

CC[S+]([O-])c1nnc(C#N)s1 (stereo not drawn) [5-ethylsulfinyl-1,3,4-thiadiazole-2-carbonitrile]
number of sound peas ([1]; 25 mg/l soil): 19
root evaluation (1-4) ([1]; 25 mg/l soil): 4
number of sound peas ([1]; 50 mg/l soil): 20
root evaluation (1-4) ([1]; 50 mg/l soil): 4
number of sound peas ([1]; 100 mg/l soil): 20
root evaluation (1-4) ([1]; 100 mg/l soil): 4
root evaluation (1-4) ([4]; 20 mg/l soil): 4
number of sound peas ([4]; 20 mg/l soil): 20
root evaluation (1-4) ([4]; 40 mg/l soil): 4
number of sound peas ([4]; 40 mg/l soil): 19
root evaluation (1-4) ([4]; 80 mg/l soil): 4
number of sound peas ([4]; 80 mg/l soil): 19
% activity ([2]; 10 g active agent per 100 kg): 99.8%
% activity ([2]; 20 g active agent per 100 kg): 100%
% activity ([2]; 50 g active agent per 100 kg): 100%
% activity [5, 9]: 100%
% activity [3, 10]: 89%
% activity [3, 7]: 96%
% activity [3, 8]: 100%
% activity ([6]; 10 g active agent per 100 kg): 98%
% activity ([6]; 20 g active agent per 100 kg): 100%
% activity ([6]; 50 g active agent per 100 kg): 100%

CCNC(=O)c1nnc(S(=O)(=O)CC)s1 [5-ethylsulfonyl-1,3,4-thiadiazole-2-carboxylic acid ethylamide]
root evaluation (1-4) ([4]; 20 mg/l soil): 4
number of sound peas ([4]; 20 mg/l soil): 15
root evaluation (1-4) ([4]; 40 mg/l soil): 4
number of sound peas ([4]; 40 mg/l soil): 16
root evaluation (1-4) ([4]; 80 mg/l soil): 4
number of sound peas ([4]; 80 mg/l soil): 16
% activity ([2]; 10 g active agent per 100 kg): 99.3%
% activity ([2]; 20 g active agent per 100 kg): 100%
% activity ([2]; 50 g active agent per 100 kg): 100%
% activity [5, 11]: 98%
% activity [5, 9]: 99.5%
% activity [5, 12]: 100%
% activity [3, 8]: 98%
% activity ([6]; 20 g active agent per 100 kg): 100%
% activity ([6]; 50 g active agent per 100 kg): 100%

CCS(=O)(=O)c1nnc(C(=O)N2CCOCC2)s1 [5-ethylsulfonyl-1,3,4-thiadiazole-2-carboxylic acid-(N,N-3-oxapentamethyleneamide]
% activity ([2]; 50 g active agent per 100 kg): 100%
% activity [5, 9]: 99.3%
% activity ([6]; 10 g active agent per 100 kg): 99%
% activity ([6]; 20 g active agent per 100 kg): 100%
% activity ([6]; 50 g active agent per 100 kg): 100%

CCCCN(C)C(=O)c1nnc(S(=O)(=O)CC)s1 [5-ethylsulfonyl-1,3,4-thiadiazole-2-carboxylic acid-(N-butyl,N-methyl)-amide]
% activity ([2]; 10 g active agent per 100 kg): 98%
% activity ([2]; 20 g active agent per 100 kg): 100%
% activity ([2]; 50 g active agent per 100 kg): 100%
% activity [5, 11]: 94%
% activity [5, 9]: 96.9%
% activity [5, 12]: 99.5%
% activity [3, 10]: 100%
% activity [3, 7]: 100%
% activity [3, 8]: 100%
% activity ([6]; 20 g active agent per 100 kg): 100%
% activity ([6]; 50 g active agent per 100 kg): 100%

CCS(=O)(=O)c1nnc(C(=O)NC2CC2)s1 [5-ethylsulfonyl-1,3,4-thiadiazole-2-carboxylic acid-cyclopropylamide]
% activity ([2]; 10 g active agent per 100 kg): 85%
% activity ([2]; 20 g active agent per 100 kg): 100%
% activity ([2]; 50 g active agent per 100 kg): 100%
% activity ([5]; 200 g active agent/100 kg barley): 100%
